From ChEMBL document CHEMBL3351907, “Design, synthesis and biological evaluation of benzyl 2-(1H-imidazole-1-yl) pyrimidine analogues as selective and potent Raf inhibitors” (Bioorg Med Chem Lett, 2014) come the findings set out here.

Activity calls are given as the source filed them. No cut-off for these calls is given here.

Holding throughout (type): functional
A short description of assay [1]: (§1) Cytotoxicity against human A375P cells assessed as cell viability after 24 hrs by MTT assay.
Assay [2] is described as follows: (§2) Cytotoxicity against human U937 cells assessed as cell viability after 24 hrs by MTT assay. The conditions noted are these: U-937, 24 h. On the technique in general: Formazan colour is commonly taken as a measure of viable cells.
The test system of a further assay is A375P. The description is as §1.
For the next assay, the system named is U-937. Described as §2.

Turning to `C[C@H](O)CNc1nccc(-n2ccnc2Cc2cccc(NC(=O)Cc3c[nH]c4ccccc34)c2)n1`, the concentration for 50% growth inhibition (GI50) in assay [1] and in assay [2] was more than 30 µM in each case.

Regarding `C[C@H](O)CNc1nccc(-n2ccnc2C(=O)c2ccc(NC(=O)c3ccc(Cl)cc3)cc2)n1`, the GI50 in assay [1] and in assay [2] was more than 30 µM throughout.

With `C[C@H](O)CNc1nccc(-n2ccnc2C(=O)c2cccc(NC(=O)Nc3ccc(Cl)cc3)c2)n1`, the GI50 in assay [1] and in assay [2] was more than 30 µM each time.

`C[C@H](O)CNc1nccc(-n2ccnc2Cc2cccc(NC(=O)C3Cc4ccccc4N3)c2)n1` (stereo partly drawn): the GI50 – broadly, the concentration giving 50% growth inhibition – was more than 30 µM in assay [1] and 18.5 µM in assay [2].

Regarding `C[C@H](O)CNc1nccc(-n2ccnc2C(=O)c2cccc(NC(=O)c3ccc(Cl)cc3)c2)n1`, the GI50 in assay [1] and in assay [2] was more than 30 µM each time.

As for `C[C@H](O)CNc1nccc(-n2ccnc2C(=O)c2cccc(NC(=O)Nc3ccc(Cl)c(Cl)c3)c2)n1`, the values for the GI50 in assay [1] and in assay [2] were more than 30 µM and 14.7 µM, respectively.

As for `C[C@H](O)CNc1nccc(-n2ccnc2Cc2cccc(NC(=O)c3ccccc3-c3ccccc3)c2)n1`, the GI50 result in the assay on A375P and in the assay on U-937 was “inactive” throughout.

In the case of `C[C@H](O)CNc1nccc(-n2ccnc2Cc2cccc(NC(=O)c3ccc(Cl)cc3)c2)n1`, the GI50 in assay [1] is 10.2 µM; in assay [2] it was more than 30 µM.

With `C[C@H](O)CNc1nccc(-n2ccnc2Cc2cccc(NC(=O)c3ccccc3Sc3ccccc3C#N)c2)n1`, the GI50 result with A375P was “inactive”. Moreover, in assay [2], the GI50 was 10 µM.

On to `COc1ccc(-c2ccc(C(=O)Nc3cccc(C(=O)c4nccn4-c4ccnc(NC[C@H](C)O)n4)c3)o2)cc1`, for which the GI50 in assay [1] came out at 9.39 µM; in assay [2] it was 2.55 µM.

For `CC(=O)N1CCC(C(=O)Nc2cccc(Cc3nccn3-c3ccnc(NC[C@H](C)O)n3)c2)CC1`, the GI50 entry in the assay with A375P and in the assay on U-937 was “inactive” each time.

Turning to `Cc1cc(C)cc(C(=O)Nc2cccc(Cc3nccn3-c3ccnc(NC[C@H](C)O)n3)c2)c1`, in the assay on A375P, the GI50 entry was “inactive”. Besides, the GI50 in assay [2] is 16.8 µM.

As for `CNC(=O)c1cc(Oc2ccc(NC(=O)Nc3ccc(Cl)c(C(F)(F)F)c3)cc2)ccn1` [SORAFENIB], the GI50 stood at 3.4 µM in assay [1] and 2.74 µM in assay [2].

As for `C[C@H](O)CNc1nccc(-n2ccnc2C(=O)c2cccc(NC(=O)c3cc(N4CCOCC4)cc(C(F)(F)F)c3)c2)n1`, the GI50 entry in the assay with A375P is “inactive”. Moreover, the GI50 in assay [2] was found to be 4.9 µM.

For `C[C@H](O)CNc1nccc(-n2ccnc2C(=O)c2ccc(NC(=O)Nc3ccc(Cl)c(Cl)c3)cc2)n1`, the figures for the GI50 in assay [1] and in assay [2] were more than 30 µM and 11.6 µM, respectively.

On to `Cc1c(C)c2c(c(C)c1O)CC[C@](C)(C(=O)Nc1cccc(Cc3nccn3-c3ccnc(NC[C@H](C)O)n3)c1)O2`, for which the GI50 entry in the assay on A375P is “inactive”. Further, the GI50 in assay [2] was found to be 23.6 µM.

Regarding `CCN1CCN(Cc2ccc(NC(=O)Nc3cccc(Cc4nccn4-c4ccnc(NC[C@H](C)O)n4)c3)cc2C(F)(F)F)CC1`, the GI50 in assay [1] and in assay [2] was more than 30 µM throughout.

Consider `C[C@H](O)CNc1nccc(-n2ccnc2Cc2cccc(NC(=O)c3ccc4ccccc4n3)c2)n1`, for which the GI50 entry with A375P was “inactive”. In assay [2], the GI50 worked out at 23.8 µM.

As to `C[C@H](O)CNc1nccc(-n2ccnc2Cc2cccc(NC(=O)c3ccc(N4CCOCC4)c(C(F)(F)F)c3)c2)n1`, the GI50 result with A375P and with U-937 was “inactive” in each case.

In the case of `C[C@H](O)CNc1nccc(-n2ccnc2Cc2cccc(NC(=O)c3ccncc3)c2)n1`, the GI50 in assay [1] came out at 8.92 µM. Besides, the GI50 entry in the assay with U-937 is “inactive”.

For the molecule `C[C@H](O)CNc1nccc(-n2ccnc2Cc2cccc(NC(=O)c3cnn(-c4ccccc4)c3C(F)(F)F)c2)n1`, the figures for the GI50 in assay [1] and in assay [2] were 6.39 µM and 25.8 µM, respectively.

Take `C[C@H](O)CNc1nccc(-n2ccnc2C(=O)c2cccc(NC(=O)c3cc(N4CCN(C)CC4)cc(C(F)(F)F)c3)c2)n1`: the GI50 in assay [1] came out at 27.8 µM. In addition, the GI50 entry with U-937 is “inactive”.

Take `C[C@H](O)CNc1nccc(-n2ccnc2C(=O)c2cccc(NC(=O)c3cccc(C(F)(F)F)c3)c2)n1`: the GI50 is more than 30 µM in assay [1] and 3.78 µM in assay [2].

Consider `C[C@H](O)CNc1nccc(-n2ccnc2Cc2cccc(NC(=O)C(c3ccc(Cl)cc3)c3ccc(Cl)cc3)c2)n1`, for which the GI50 in assay [1] came to 3.97 µM; in assay [2], 3.24 µM.

As for `C[C@H](O)CNc1nccc(-n2ccnc2C(=O)c2ccc(NC(=O)c3cccc(Cl)c3)cc2)n1`, the 50% growth inhibitory concentration (GI50) in assay [1] and in assay [2] was more than 30 µM each time.

As to `C[C@H](O)CNc1nccc(-n2ccnc2Cc2cccc(NC(=O)c3cnccn3)c2)n1`, the GI50 result in the assay with A375P is “inactive”. For the same molecule, the GI50 in assay [2] was more than 30 µM.

For `C[C@H](O)CNc1nccc(-n2ccnc2Cc2cccc(NC(=O)c3ccc(-c4ccccc4)cc3)c2)n1`, the GI50 in assay [1] is 0.6 µM; in assay [2], 1.68 µM.

With `C[C@H](O)CNc1nccc(-n2ccnc2Cc2cccc(NC(=O)c3ccc(Cl)c(C(F)(F)F)c3)c2)n1`, the GI50 in assay [1] turned out to be 3.3 µM; in assay [2] it was 6.83 µM.

Take `C[C@H](O)CNc1nccc(-n2ccnc2Cc2cccc(NC(=O)c3ccccc3F)c2)n1`: the GI50 in assay [1] was 7.45 µM; in assay [2] it was more than 30 µM.

Take `C[C@H](O)CNc1nccc(-n2ccnc2C(=O)c2ccc(NC(=O)c3ccc(C(F)(F)F)c(N4CCOCC4)c3)cc2)n1`: the GI50 in assay [1] was 7.07 µM. For the same molecule, the GI50 entry in the assay on U-937 was “inactive”.

As for `C[C@H](O)CNc1nccc(-n2ccnc2Cc2cccc(NC(=O)Nc3ccc(Cl)c(Cl)c3)c2)n1`, the results for the GI50 in assay [1] and in assay [2] were 19.2 µM and 1.73 µM, respectively.

As to `C[C@H](O)CNc1nccc(-n2ccnc2Cc2cccc(NC(=O)Cc3ccc(-c4ccccc4)cc3)c2)n1`, the GI50 in assay [1] came out at 11.2 µM; in assay [2], 10 µM.

Regarding `C[C@H](O)CNc1nccc(-n2ccnc2C(=O)c2ccc(NC(=O)c3cc(N4CCN(C)CC4)cc(C(F)(F)F)c3)cc2)n1`, the GI50 in assay [1] came out at 5.92 µM. In addition, the GI50 entry in the assay on U-937 is “inactive”.

Turning to `C[C@H](O)CNc1nccc(-n2ccnc2C(=O)c2cccc(NC(=O)c3cccc(Cl)c3)c2)n1`, the 50% growth inhibitory concentration (GI50) in assay [1] and in assay [2] was more than 30 µM each time.

For `C[C@H](O)CNc1nccc(-n2ccnc2C(=O)c2ccc(NC(=O)Nc3ccc(Cl)c(C(F)(F)F)c3)cc2)n1`, the GI50 is more than 30 µM in assay [1] and 7.45 µM in assay [2].

On to `C[C@H](O)CNc1nccc(-n2ccnc2Cc2cccc(NC(=O)c3cc(N4CCN(C)CC4)cc(C(F)(F)F)c3)c2)n1`, for which the GI50 was 12.3 µM in assay [1] and more than 30 µM in assay [2].

As for `C[C@H](O)CNc1nccc(-n2ccnc2Cc2cccc(NC(=O)Nc3cccc(Cl)c3)c2)n1`, the values for the GI50 in assay [1] and in assay [2] were 26.2 µM and 15.3 µM, respectively.

`C[C@H](O)CNc1nccc(-n2ccnc2Cc2cccc(NC(=O)c3cc(N4CCOCC4)cc(C(F)(F)F)c3)c2)n1`: the values for the GI50 in assay [1] and in assay [2] were 6.6 µM and 9.7 µM, respectively.

As for `C[C@H](O)CNc1nccc(-n2ccnc2C(=O)c2ccc(NC(=O)c3ccc(Cl)c(C(F)(F)F)c3)cc2)n1`, the GI50 in assay [1] and in assay [2] was more than 30 µM throughout.
